Laboratory results taken from PMC9497135, “Structure-Based Study to Overcome Cross-Reactivity of Novel Androgen Receptor Inhibitors” (Cells, 2022).
pIC50: −log10 of the molar value.

Legend:
[1] = target: T1, AR (LNCaP cells, which carry the T878A AR mutation) (Homo sapiens, UniProt P10275, T878A); experiment: eGFP cellular AR transcription assay in LNCaP cells (LN-ARR2PB-eGFP); type: cell-based; details: LNCaP, with R1881, high concentrations
T1 construct: LNCaP cells, which carry the T878A AR mutation; endogenous in cells; host or cells: LNCaP (LN-ARR2PB-eGFP)
T1 sequence (P10275 1-920 T878A): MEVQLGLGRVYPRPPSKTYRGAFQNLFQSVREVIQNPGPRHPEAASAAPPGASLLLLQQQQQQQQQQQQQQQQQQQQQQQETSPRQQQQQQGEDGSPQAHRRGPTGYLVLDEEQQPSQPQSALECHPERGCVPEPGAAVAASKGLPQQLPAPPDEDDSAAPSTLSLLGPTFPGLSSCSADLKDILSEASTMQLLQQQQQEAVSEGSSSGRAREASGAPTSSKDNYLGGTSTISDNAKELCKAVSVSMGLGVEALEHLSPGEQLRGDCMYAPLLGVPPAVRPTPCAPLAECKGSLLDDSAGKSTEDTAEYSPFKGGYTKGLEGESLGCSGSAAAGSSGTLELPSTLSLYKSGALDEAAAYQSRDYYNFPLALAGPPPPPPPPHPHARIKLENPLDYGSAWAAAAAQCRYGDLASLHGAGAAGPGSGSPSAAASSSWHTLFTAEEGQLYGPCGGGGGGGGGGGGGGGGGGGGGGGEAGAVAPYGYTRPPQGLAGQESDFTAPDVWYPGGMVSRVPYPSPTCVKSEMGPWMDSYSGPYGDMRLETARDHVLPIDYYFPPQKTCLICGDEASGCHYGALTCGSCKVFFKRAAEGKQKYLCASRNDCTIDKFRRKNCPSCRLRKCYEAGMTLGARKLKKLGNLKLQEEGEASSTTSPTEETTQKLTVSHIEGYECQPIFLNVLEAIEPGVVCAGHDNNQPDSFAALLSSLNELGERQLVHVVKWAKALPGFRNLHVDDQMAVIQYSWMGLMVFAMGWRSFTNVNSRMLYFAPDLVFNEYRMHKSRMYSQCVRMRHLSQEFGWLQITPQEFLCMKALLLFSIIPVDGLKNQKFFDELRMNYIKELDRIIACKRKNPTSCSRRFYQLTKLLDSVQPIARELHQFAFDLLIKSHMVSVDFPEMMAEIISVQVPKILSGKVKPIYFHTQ
Experimental: AR transcriptional activity was assayed as previously described. Briefly, LNCaP human prostate cancer cells (LN-ARR2PB-eGFP), stably transfected with eGFP reporter driven by an androgen responsive probasin-derived promoter (ARR2PB), were grown in phenol red free RPMI 1640 media supplemented with 5% charcoal stripped serum (CSS). After 5 days, the cells were plated into a 96-well plate (35,000 cells/well) with 0.1 nM of the synthetic androgen R1881 and increasing concentrations (0−100 μM) of test compounds. Fluorescence (excitation 485 nm, emission 535 nm) was measured after 3 days of incubation with the compounds.

[2] = test system: prostate-specific antigen (PSA) expression in LNCaP cells; experiment: PSA assay in LNCaP cells; type: cell-based; details: Homo sapiens, 72 h, with R1881, 3 days
Experimental: The PSA assay was performed in parallel with the previous reporter eGFP assay and using the same plates. After 3 days incubation of LNCAP cells with R1881 and the test compound, 150 µL of the media was taken from each well and added to 150 µL of PBS. PSA levels were then evaluated using the Cobas e 411 analyzer instrument (Roche Diagnostics) according to the manufacturer’s instructions.

Androgen Receptor ABS = target: T2, Androgen Receptor ABS (Rattus norvegicus, UniProt P15207); experiment: Androgen (DHT) displacement, Polar Screen Androgen Receptor Competitor Green Assay Kit; type: binding; details: fluorescence polarization kit
T2 construct: purchased
T2 sequence (P15207 647-902 limits assumed): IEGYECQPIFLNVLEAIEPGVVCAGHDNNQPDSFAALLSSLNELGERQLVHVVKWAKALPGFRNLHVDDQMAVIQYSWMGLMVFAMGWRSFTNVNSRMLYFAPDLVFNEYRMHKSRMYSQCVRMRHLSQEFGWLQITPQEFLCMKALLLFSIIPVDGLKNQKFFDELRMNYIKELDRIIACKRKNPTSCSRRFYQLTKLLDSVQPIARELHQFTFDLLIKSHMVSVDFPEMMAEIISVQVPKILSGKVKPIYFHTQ
Experimental: Androgen displacement was assessed with the Polar Screen Androgen Receptor Competitor Green Assay Kit as per the instructions of the manufacturer.

[3] = target: T1, AR (LNCaP cells, which carry the T878A AR mutation); experiment: eGFP cellular AR transcription assay in LNCaP cells (LN-ARR2PB-eGFP); type: cell-based; details: eGFP-expressing LNCaP cells, no R1881
[4] = test system: endogenous wild type AR in R1-AD1 cells; experiment: AR transcriptional activity in R1-AD1 cells; type: cell-based, human; details: 0.1 nM R1881
wild type AR LBD = target: T3, wild type AR LBD (Homo sapiens, UniProt P10275); experiment: Biolayer interferometry (BLI), wild type LBD; type: binding
T3 construct: made in house; host or cells: E. coli BL21-DE3 co-transformed with pBirACm
T3 sequence (P10275 669-900 limits assumed): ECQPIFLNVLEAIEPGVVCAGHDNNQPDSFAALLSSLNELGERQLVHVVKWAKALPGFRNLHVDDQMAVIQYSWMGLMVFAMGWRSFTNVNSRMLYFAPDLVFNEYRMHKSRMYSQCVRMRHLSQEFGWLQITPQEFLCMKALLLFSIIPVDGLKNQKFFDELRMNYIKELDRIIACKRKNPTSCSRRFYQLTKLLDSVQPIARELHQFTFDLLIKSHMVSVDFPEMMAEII
Experimental: The direct reversible interaction between small molecules and the AR was quantified by BLI using OctetRED (ForteBio, Fremont, CA, USA). The wild type and T878A-LDB in fusion with an N-terminal (His)6-avidin ([…]) tag were expressed in E. coli BL21-DE3 cells co-transformed with pBirACm plasmid (Avidity), which expresses a biotin ligase leading to the biotynilation of the avidin tag on the LBD. Cells were grown in LB media at 37 °C to an OD600nm = 0.5 and then induced with 0.5 mM isopropyl-β-D-thiogalactoside. A measure of 20 µM of dihydrotestosterone (DHT) and 0.15 mM biotin were added and the cells were incubated at 16 °C for 18 to 20 h. Cells were then resuspended and lysed in buffer containing 500 mM Li2SO4, 50mM HEPES pH7.2, 10% Glycerol, 0.1% Octyl-beta-Glucoside, 20 µM of DHT, 5 mM β-mercaptoethanol, 10 mM imidazole and 0.1 mM phenylmethanesulfonyl fluoride. […] After an overnight dialysis against 150 mM Li2SO4, 50 mM HEPES pH7.2, 10% Glycerol, 0.1% Octyl-beta-Glucoside, 20 µM of DHT and 0.2 mM tris(2-carboxyethyl)phosphine, purified proteins at 50 µg/mL were bound to the super-streptavidin sensors overnight at 4 °C. The assay was performed at 20 °C in the dialysis buffer supplemented with 5% dimethyl sulfoxide (DMSO) which was also used as our reference measurement.

**Q.** For `COc1c(F)cccc1-c1csc(N2CCOCC2)n1` [VPC14368, 4-(4-(3-fluoro-2-methoxyphenyl)thiazol-2-yl)morpholine], which “Partial agonistic effect in eGFP assay” value [1] is on record?
**A.** partial agonistic effect

**Q.** What about the pIC50 [2] of the same compound?
**A.** 6.89

**Q.** What about the “Androgen Displacement (Yes/No)” value (Androgen Receptor ABS) of the same compound?
**A.** Yes

**Q.** What about the “AR transcriptional activity in the absence of R1881” value [3] of the same compound?
**A.** enhanced the AR transcriptional activity

**Q.** And the “Agonistic effect in R1-AD1 cells” value [4]?
**A.** not observed

**Q.** What about the “Direct binding to wild-type LBD by BLI” value (wild type AR LBD) of the same compound?
**A.** confirmed at high concentrations and in a concentration-dependent manner

**Q.** And the “Concentration at which binding is seen (BLI)” value (wild type AR LBD; Figure 2, 50-300 µM tested)?
**A.** above 100 µM
